# pIC50: −log10 of the molar value.
# Key:
# [1] = target: Tyrosine-protein kinase ABL2 (Homo sapiens) (UniProt P42684); experiment: Inhibition of human ABL2 assessed as residual activity at 1 uM using Poly(Ala,Glu,Lys,Tyr)6:2:5:1 as substrate in presence of 33P-ATP by ProQinase assay relative to control
# [2] = Anti-inflammatory activity against human derived high respond PBMC cells assessed as inhibition in stimulated IL-10 cytokine release incubated for 2 hrs in the presence of LPS/SEB/aCD28 by Luminex based sandwich immunoassay; assay type: functional, cell-based
# TAK1/TAB1 (Homo sapiens) = TAK1/TAB1 (Homo sapiens) (UniProt Q15750+O43318); experiment: Inhibition of human MAP3K7/MAP3K7IP1 assessed as residual activity at 1 uM using RB-S6P as substrate in presence of 33P-ATP by ProQinase assay relative to control; assay type: protein-complex assay
# [3] = target: Ephrin type-A receptor 7 (Homo sapiens) (UniProt Q15375); experiment: Inhibition of EPHA7 (unknown origin) assessed as remaining activity at 1 uM by Kinome scan method relative to control
# [4] = target: RAC-beta serine/threonine-protein kinase (Homo sapiens) (UniProt P31751); experiment: Inhibition of human AKT2 assessed as residual activity at 1 uM using RBER-GSK3(14-27) as substrate in presence of 33P-ATP by ProQinase assay relative to control
# [5] = target: Serine/threonine-protein kinase MRCK alpha (Homo sapiens) (UniProt Q5VT25); experiment: Inhibition of human CDC42BPA assessed as residual activity at 1 uM using RB-S6P as substrate in presence of 33P-ATP by ProQinase assay relative to control
# Chain of Serine/threonine-protein kinase MRCK alpha (Homo sapiens) (Q5VT25 whole entry): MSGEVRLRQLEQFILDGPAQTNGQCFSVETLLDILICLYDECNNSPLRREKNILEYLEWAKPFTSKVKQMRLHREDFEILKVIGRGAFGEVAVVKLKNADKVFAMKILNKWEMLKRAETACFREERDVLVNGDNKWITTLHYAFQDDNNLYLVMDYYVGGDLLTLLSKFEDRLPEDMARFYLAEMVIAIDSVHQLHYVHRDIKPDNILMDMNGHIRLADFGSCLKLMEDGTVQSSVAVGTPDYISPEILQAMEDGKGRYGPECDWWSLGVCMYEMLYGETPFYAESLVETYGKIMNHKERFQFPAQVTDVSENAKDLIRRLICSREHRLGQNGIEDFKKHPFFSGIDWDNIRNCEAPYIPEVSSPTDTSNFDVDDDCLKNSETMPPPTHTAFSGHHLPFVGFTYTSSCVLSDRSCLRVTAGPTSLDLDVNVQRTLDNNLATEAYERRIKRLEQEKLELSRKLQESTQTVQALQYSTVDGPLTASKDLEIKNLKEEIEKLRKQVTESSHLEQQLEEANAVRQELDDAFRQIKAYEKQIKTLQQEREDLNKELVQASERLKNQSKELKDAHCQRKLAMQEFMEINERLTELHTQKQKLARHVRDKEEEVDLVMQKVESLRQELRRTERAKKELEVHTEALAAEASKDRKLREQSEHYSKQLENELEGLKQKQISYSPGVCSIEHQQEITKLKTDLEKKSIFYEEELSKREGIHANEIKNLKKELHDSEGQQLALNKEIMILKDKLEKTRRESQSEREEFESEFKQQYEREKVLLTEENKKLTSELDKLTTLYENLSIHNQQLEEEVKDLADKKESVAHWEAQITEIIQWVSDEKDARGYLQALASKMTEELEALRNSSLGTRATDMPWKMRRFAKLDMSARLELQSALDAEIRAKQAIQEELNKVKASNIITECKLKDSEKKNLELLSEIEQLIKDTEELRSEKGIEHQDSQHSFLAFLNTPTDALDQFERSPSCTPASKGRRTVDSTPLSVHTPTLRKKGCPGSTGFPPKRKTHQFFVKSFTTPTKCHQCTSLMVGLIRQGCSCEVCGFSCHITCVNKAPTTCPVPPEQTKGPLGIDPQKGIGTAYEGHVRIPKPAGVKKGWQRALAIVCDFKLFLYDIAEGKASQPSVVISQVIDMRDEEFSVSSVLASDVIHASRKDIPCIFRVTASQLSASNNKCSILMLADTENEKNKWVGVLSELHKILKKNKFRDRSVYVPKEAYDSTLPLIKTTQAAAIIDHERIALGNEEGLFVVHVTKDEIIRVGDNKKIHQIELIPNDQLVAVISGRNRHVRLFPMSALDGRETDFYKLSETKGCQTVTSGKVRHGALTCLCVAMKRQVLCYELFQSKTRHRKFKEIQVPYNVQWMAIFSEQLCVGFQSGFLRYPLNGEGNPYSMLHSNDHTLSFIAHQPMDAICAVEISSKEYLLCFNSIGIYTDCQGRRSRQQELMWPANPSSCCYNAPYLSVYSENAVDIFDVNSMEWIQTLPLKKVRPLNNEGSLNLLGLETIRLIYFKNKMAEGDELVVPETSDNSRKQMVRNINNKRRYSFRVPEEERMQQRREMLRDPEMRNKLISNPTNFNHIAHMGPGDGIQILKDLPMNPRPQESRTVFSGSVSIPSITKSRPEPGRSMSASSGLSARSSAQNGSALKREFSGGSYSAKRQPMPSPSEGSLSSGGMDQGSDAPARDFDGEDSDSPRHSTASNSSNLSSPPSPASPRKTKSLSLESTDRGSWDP
# [6] = target: Mitogen-activated protein kinase kinase kinase 10 (Homo sapiens) (UniProt Q02779); experiment: Inhibition of human MAP3K10 assessed as residual activity at 1 uM using histon H2B as substrate in presence of 33P-ATP by ProQinase assay relative to control
# [7] = Anti-inflammatory activity against human derived medium respond PBMC cells assessed as inhibition in stimulated IL-8 cytokine release incubated for 2 hrs in the presence of LPS/SEB/aCD28 by Luminex based sandwich immunoassay; assay type: functional, cell-based
# [8] = target: Casein kinase I isoform delta (Homo sapiens) (UniProt P48730); experiment: Inhibition of human CK1delta assessed as residual activity at 1 uM using casein as substrate in presence of 33P-ATP by ProQinase assay relative to control
# [9] = target: CDK4/Cyclin D3 (Homo sapiens) (UniProt P11802+P30281); experiment: Inhibition of human CDK4/CycD3 assessed as residual activity at 1 uM using RBER-CHKtide as substrate in presence of 33P-ATP by ProQinase assay relative to control; assay type: protein-complex assay
# [10] = target: AP2-associated protein kinase 1 (Homo sapiens) (UniProt Q2M2I8); experiment: Inhibition of AAK1 (unknown origin) assessed as remaining activity at 1 uM by Kinome scan method relative to control
# [11] = tested on: Leucine-rich repeat serine/threonine-protein kinase 2 (Homo sapiens), Q5S007 [G2019S]; experiment: Inhibition of human LRRK2 G2019S mutant assessed as residual activity at 1 uM using RBER-GSK3(14-27) as substrate in presence of 33P-ATP by ProQinase assay relative to control
# Chain of Leucine-rich repeat serine/threonine-protein kinase 2 (Homo sapiens), Q5S007 [G2019S] (Q5S007 whole entry G2019S): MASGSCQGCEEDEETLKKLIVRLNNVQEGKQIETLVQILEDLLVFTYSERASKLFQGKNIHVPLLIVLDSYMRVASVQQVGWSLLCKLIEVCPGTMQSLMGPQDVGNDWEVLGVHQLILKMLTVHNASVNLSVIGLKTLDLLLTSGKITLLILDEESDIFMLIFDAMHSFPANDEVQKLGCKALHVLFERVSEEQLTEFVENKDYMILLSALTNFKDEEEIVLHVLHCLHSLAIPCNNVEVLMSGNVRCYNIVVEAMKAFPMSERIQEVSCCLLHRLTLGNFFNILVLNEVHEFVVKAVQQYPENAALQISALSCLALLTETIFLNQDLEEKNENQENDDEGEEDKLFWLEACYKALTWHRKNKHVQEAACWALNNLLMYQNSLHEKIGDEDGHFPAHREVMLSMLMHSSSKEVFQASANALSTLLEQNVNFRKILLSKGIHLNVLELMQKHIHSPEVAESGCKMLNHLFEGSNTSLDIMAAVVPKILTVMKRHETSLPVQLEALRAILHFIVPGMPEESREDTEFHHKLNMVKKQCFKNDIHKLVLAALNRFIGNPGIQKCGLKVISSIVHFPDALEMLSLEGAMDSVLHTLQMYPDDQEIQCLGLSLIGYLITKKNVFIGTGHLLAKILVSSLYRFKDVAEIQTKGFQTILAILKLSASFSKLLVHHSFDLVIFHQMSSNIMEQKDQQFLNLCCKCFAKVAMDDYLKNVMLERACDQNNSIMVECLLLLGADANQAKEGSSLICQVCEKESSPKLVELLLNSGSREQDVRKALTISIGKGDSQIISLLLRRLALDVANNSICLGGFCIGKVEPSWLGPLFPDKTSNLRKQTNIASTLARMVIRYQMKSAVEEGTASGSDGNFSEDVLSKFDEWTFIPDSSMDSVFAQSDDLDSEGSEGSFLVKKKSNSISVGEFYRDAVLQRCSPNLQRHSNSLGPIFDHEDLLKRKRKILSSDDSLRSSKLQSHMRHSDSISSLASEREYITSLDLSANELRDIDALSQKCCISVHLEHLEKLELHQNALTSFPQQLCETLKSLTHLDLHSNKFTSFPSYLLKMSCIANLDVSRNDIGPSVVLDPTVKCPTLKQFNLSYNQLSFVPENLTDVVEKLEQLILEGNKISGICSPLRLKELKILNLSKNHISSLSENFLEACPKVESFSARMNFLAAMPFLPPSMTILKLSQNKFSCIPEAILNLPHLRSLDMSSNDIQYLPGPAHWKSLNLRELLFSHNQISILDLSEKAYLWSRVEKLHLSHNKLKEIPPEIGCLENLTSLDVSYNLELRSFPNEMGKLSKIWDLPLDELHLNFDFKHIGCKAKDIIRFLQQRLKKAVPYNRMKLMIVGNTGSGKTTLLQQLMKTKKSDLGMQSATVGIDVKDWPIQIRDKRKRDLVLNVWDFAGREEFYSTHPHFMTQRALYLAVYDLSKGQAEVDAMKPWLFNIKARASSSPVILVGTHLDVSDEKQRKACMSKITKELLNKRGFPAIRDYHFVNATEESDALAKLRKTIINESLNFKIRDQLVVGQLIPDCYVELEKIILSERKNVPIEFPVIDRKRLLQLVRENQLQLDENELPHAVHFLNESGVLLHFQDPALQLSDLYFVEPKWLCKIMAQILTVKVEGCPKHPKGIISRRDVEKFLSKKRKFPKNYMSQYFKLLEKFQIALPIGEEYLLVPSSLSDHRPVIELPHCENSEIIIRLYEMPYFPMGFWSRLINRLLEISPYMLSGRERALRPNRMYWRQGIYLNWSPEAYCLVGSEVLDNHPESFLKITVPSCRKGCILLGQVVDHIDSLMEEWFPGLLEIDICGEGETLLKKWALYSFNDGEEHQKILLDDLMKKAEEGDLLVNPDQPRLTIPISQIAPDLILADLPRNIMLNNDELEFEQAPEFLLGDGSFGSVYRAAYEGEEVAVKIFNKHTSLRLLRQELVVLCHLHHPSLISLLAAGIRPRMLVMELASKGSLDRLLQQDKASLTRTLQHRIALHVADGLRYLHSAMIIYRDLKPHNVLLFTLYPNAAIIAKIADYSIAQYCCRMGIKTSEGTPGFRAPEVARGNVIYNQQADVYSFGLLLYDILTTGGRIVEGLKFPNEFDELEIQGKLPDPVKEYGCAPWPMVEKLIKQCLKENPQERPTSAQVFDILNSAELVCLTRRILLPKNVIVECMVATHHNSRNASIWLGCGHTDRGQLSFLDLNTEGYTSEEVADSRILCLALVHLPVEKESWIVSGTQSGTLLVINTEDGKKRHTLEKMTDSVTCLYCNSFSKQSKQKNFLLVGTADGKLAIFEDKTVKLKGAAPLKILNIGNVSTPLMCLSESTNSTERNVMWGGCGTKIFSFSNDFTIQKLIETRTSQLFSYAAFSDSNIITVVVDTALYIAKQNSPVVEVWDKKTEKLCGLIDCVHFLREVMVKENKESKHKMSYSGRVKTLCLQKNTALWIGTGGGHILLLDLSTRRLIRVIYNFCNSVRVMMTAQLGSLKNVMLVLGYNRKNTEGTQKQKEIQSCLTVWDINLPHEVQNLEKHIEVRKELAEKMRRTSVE
# [12] = target: CDK2/Cyclin A2 (Homo sapiens) (UniProt P24941+P20248); experiment: Inhibition of human CDK2/CycA2 assessed as residual activity at 1 uM using RBER-CHKtide as substrate in presence of 33P-ATP by ProQinase assay relative to control; assay type: protein-complex assay
# [13] = target: Casein kinase I isoform epsilon (Homo sapiens) (UniProt P49674); experiment: Inhibition of human CK1epsilon assessed as residual activity at 1 uM using casein as substrate in presence of 33P-ATP by ProQinase assay relative to control
# [14] = target: Calcium/calmodulin-dependent protein kinase type II subunit gamma (Homo sapiens) (UniProt Q13555); experiment: Inhibition of CAMK2G (unknown origin) assessed as remaining activity at 1 uM by Kinome scan method relative to control
# [15] = target: Calcium/calmodulin-dependent protein kinase type 1D (Homo sapiens) (UniProt Q8IU85); experiment: Inhibition of CAMK1D (unknown origin) assessed as remaining activity at 1 uM by Kinome scan method relative to control
# [16] = target: Serine/threonine-protein kinase pim-3 (Homo sapiens) (UniProt Q86V86); experiment: Inhibition of human PIM3 assessed as residual activity at 1 uM using RBER-GSK3(14-27) as substrate in presence of 33P-ATP by ProQinase assay relative to control
# [17] = target: T1, Aurora kinase A (Homo sapiens) (UniProt O14965); experiment: Inhibition of human AuroraA assessed as residual activity at 1 uM using bio-4xCHKT as substrate in presence of 33P-ATP by ProQinase assay relative to control
# T1 sequence (whole entry): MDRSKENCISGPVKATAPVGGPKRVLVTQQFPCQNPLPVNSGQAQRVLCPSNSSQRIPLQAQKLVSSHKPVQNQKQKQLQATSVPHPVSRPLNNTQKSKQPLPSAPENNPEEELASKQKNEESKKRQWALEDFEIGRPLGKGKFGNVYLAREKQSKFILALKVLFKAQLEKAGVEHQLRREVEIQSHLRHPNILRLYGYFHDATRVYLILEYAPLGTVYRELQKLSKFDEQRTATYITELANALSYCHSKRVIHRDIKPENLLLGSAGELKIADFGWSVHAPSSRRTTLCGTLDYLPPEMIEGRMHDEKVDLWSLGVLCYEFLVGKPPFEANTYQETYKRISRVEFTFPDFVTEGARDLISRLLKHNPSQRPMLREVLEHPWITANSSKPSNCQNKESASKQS
# [18] = target: Serine/threonine-protein kinase Nek7 (Homo sapiens) (UniProt Q8TDX7); experiment: Inhibition of human NEK7 assessed as residual activity at 1 uM using casein as substrate in presence of 33P-ATP by ProQinase assay relative to control
# [19] = target: CDK8/Cyclin C (Homo sapiens) (UniProt P49336+P24863); experiment: Inhibition of human CDK8/CyclinC assessed as residual activity at 1 uM using RBER-CHKtide as substrate in presence of 33P-ATP by ProQinase assay relative to control; assay type: protein-complex assay
# [20] = target: Casein kinase II subunit alpha' (Homo sapiens) (UniProt P19784); experiment: Inhibition of human CK2alpha2 assessed as residual activity at 1 uM using casein as substrate in presence of 33P-ATP by ProQinase assay relative to control
# Chain of Casein kinase II subunit alpha' (Homo sapiens) (P19784 whole entry, looked up): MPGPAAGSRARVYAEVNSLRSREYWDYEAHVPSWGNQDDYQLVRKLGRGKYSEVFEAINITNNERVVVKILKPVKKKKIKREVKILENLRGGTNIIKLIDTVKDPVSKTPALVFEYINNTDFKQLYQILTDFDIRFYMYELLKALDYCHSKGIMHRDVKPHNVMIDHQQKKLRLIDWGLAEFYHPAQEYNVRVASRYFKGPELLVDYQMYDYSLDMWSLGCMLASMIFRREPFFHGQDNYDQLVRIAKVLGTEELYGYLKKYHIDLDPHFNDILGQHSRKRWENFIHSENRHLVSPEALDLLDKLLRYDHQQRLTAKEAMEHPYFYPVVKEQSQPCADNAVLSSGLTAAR
# [21] = Anti-inflammatory activity against human derived medium respond PBMC cells assessed as inhibition in stimulated IL-4 cytokine release incubated for 2 hrs in the presence of LPS/SEB/aCD28 by Luminex based sandwich immunoassay; assay type: functional, cell-based
# [22] = Anti-inflammatory activity against human derived high respond PBMC cells assessed as inhibition in stimulated IP-10 chemokine release incubated for 2 hrs in the presence of LPS/SEB/aCD28 by Luminex based sandwich immunoassay; assay type: functional, cell-based
# [23] = target: Cyclin-dependent kinase 5 (Homo sapiens) (UniProt Q00535); experiment: Inhibition of CDK5 (unknown origin) assessed as remaining activity at 1 uM by Kinome scan method relative to control
smiles,measurement,setting,value
O=C1c2ccc(Nc3ccc(F)cc3F)cc2CCc2ccc(OC[C@H](O)CO)cc21 [Skepinone-L],Activity,[1],99%
same,pIC50,[2],7.30
same,Activity,TAK1/TAB1 (Homo sapiens),80%
same,Activity,[3],89%
same,Activity,[4],121%
same,Activity,[5],98%
same,Activity,[6],101%
same,pIC50,[7],7.22
same,Activity,[8],98%
same,Activity,[9],98%
same,Activity,[10],100%
same,Activity,[11],77%
same,Activity,[12],101%
same,Activity,[13],86%
same,Activity,[14],100%
same,Activity,[15],99%
same,Activity,[16],78%
same,Activity,[17],99%
same,Activity,[18],83%
same,Activity,[19],105%
same,Activity,[20],87%
same,IC50,[21],Not Active
same,IC50,[22],Not Active
same,Activity,[23],100%
